Results: patent US20260015363A1, “SUBSTITUTED PYRIMIDINE-FUSED RING INHIBITOR, METHOD FOR PREPARING SAME, AND USE THEREOF” (Suzhou Zelgen Biopharmaceuticals Co., Ltd., priority 2022, published 2026)

Tests used:
AsPC-1 (G12D) = assay: KRAS mutant cell proliferation inhibition assay (CellTiter-Glo 3D), AsPC-1; assay type: cell-based, human; conditions: Homo sapiens, ASPC1, 168 h, AsPC-1 (G12D) cells, 7 days
Protocol: (§1) Positive control: MRTX1133
(§2) • (a) The cells were thawed in T75 cell culture flasks: • (b) When 80%-90% cell confluence was achieved, the cells were passaged.
(§3) The diluted test compound was added to a 384-well cell culture plate using a nanoliter pipetting system, and replicate wells were set. An equal volume of medium was added to the positive control group; an equal volume of DMSO was added to the negative control group. The plate was centrifuged at 1000 rpm at room temperature for 1 min.
(§4) The cells were seeded into a) 384-well culture plate. An equal volume of cells was added to the negative control group, and only an equal volume of medium was added to the positive control group. The plate was centrifuged at 1000 rpm at room temperature for 1 min. The final DMSO concentration in the final compound was 0.5%. The plate was incubated in a thermostatic incubator at 37° C. with 5% CO2 for 7 days.
(§5) CellTiter-Glo® 3D was added to b) 384-well cell culture plate at 20 μL/well. The plate was shaken at 320 rpm in the dark for 20 min, and incubated at room temperature in the dark for 2 h. The luminescence values were read using an Envision multi-mode microplate reader.
(§6) The inhibition rates (IRs) of the test compounds were calculated according to the following formula: IR (%)=(1−(RLU compound−RLU blank control)/(RLU vehicle control−RLU blank control))×100%. The inhibition rates of the compounds at different concentrations were calculated in Excel, and then inhibition curves were plotted and relevant parameters including minimum inhibition rate, maximum inhibition rate and IC50 were calculated using GraphPad Prism software.

H727 (G12V) = assay: KRAS mutant cell proliferation inhibition assay (CellTiter-Glo 3D), H727; assay type: cell-based, human; conditions: Homo sapiens, NCI-H727, 168 h, H727 (G12V) cells, 7 days
Protocol: as §1, §2, §3, §4, §5, §6

SW480 (G12V) = assay: KRAS mutant cell proliferation inhibition assay (CellTiter-Glo 3D), SW480; assay type: cell-based; conditions: Homo sapiens, 168 h, SW480 (G12V) cells, 7 days
Protocol: as §1, §2, §3, §4, §5, §6

PSN-1 (G12R) = assay: KRAS mutant cell proliferation inhibition assay (CellTiter-Glo 3D), PSN-1; assay type: cell-based; conditions: Homo sapiens, PSN1, 168 h, PSN-1 (G12R) cells, 7 days
Protocol: as §1, §2, §3, §4, §5, §6

MNK1 (WT) = assay: Cell proliferation inhibition assay (CellTiter-Glo 3D), MNK1; assay type: cell-based, human; conditions: Homo sapiens, 168 h, MNK1 (WT) cells, 7 days
Protocol: as §1, §2, §3, §4, §5, §6

| IC50 (AsPC-1 (G12D)) [nM] | IC50 (H727 (G12V)) [nM] | IC50 (SW480 (G12V)) [nM] | SMILES | IC50 (PSN-1 (G12R)) [nM] | IC50 (MNK1 (WT)) [nM] |
| --- | --- | --- | --- | --- | --- |
| 11.4 | 45.1 | 68.2 | CCc1c(F)ccc2cc(O)cc(-c3ncc4c(N5CCCC6(CCO6)C5)nc(OC[C@@]56CCCN5C[C@@]5(CC5(F)F)C6)nc4c3F)c12 (stereo partly drawn) [Example A-16, 4-(2-(((1S,7a'S)-2,2-Difluorodihydro-1′H,3′H-spiro[cyclopropane-1,2′-pyrrolizin]-7a′ (5′H)-yl)methoxy)-8-fluoro-4-(1-oxa-6-azaspiro[3.5]nonan-6-yl)pyrido[4,3-d]pyrimidin-7-yl)-5-ethyl-6-fluoronaphthalen-2-ol] | 1000 | 22.7 |
| 293 | 604 | – | CC1(O)COCCN(c2nc(OC[C@@]34CCCN3C[C@@]3(CC3(F)F)C4)nc3c(F)c(-c4cc(N)cc(Cl)c4C(F)(F)F)ncc23)C1 (stereo partly drawn) [Example A-39, 4-(7-(5-Amino-3-chloro-2-(trifluoromethyl)phenyl)-2-(((1S,7a'S)-2,2-difluorodihydro-1′H,3′H-spiro[cyclopropane-1,2′-pyrrolizin]-7a′ (5′H)-yl)methoxy)-8-fluoropyrido[4,3-d]pyrimidin-4-yl)-6-methyl-1.4-oxazenan-6-ol] | > 10000 | 273 |
| 8.98 | 47.3 | – | CCc1c(F)ccc2cc(O)cc(N3CCc4c(nc(OC[C@@]56CCCN5C[C@@]5(CC5(F)F)C6)nc4N4CCCn5nc(C(=O)N(C)C)cc5C4)C3)c12 [Example B-13, 5-(2-(((1S,7a'S)-2,2-Difluorodihydro-1′H,3′H-spiro[cyclopropane-1,2′-pyrrolizin]-7a′ (5′H)-yl)methoxy)-7-(8-ethyl-7-fluoro-3-hydroxynaphthalen-1-yl)-5,6,7,8-tetrahydropyrido[3,4-d]pyrimidin-4-yl)-N,N-dimethyl-5,6,7,8-tetrahydro-4H-pyrazolo[1,5-a][1,4]diazepine-2-carboxamide] | 2350 | 24.3 |
| 10.1 | 2270 | 432 | C#Cc1c(F)ccc2cc(O)cc(-c3ncc4c(N5CC6CCC(C5)N6)nc(OC[C@@]56CCCN5C[C@H](F)C6)nc4c3F)c12 [MRTX1133, reference compound] | > 10000 | 319 |
